According to article PMC10485887, “PET Evaluation of the Novel F-18 Labeled Reversible Radioligand [^18F]GEH200449 for Detection of Monoamine Oxidase-B in the Non-Human Primate Brain” (ACS Chemical Neuroscience, 2023):

Experiments:
Format in all cases: in vivo, Macaca fascicularis
[1] = PET whole-brain radioactivity (brain exposure) at baseline; conditions: for whole-brain radioactivity, maximum concentration: IV injection
Method: Two male and three female NHPs (#1–5) of the species M. fascicularis, weighing 4.2–8.8 kg, were supplied by the Astrid Fagraeus Laboratory, Karolinska Institutet, Solna, Sweden. Anesthesia was initiated by intramuscular injection of ketamine hydrochloride (ca. 10 mg/kg, Ketalar, Pfizer) and maintained by intravenous infusion of a mixture of ketamine hydrochloride (4 mg/kg/h) and xylazine hydrochloride (0.4 mg/kg/h Rompun Vet., Bayer).
PET measurements were conducted using the high-resolution research tomograph system (Siemens Molecular Imaging, Knoxville, TN, USA) for NHPs #1–4 and using the LFER 150 PET/CT system (Mediso Ltd., Budapest, Hungary) for NHP #5.
(§1) At start of PET data acquisition, a sterile physiological phosphate buffer solution (pH = 7.4) of [^18F]GEH200449 (injected radioactivity, 107–167 MBq) was injected as a bolus into a sural vein. Emission data were acquired in list mode for 123 min. Arterial blood was sampled as previously described[28] using an automated blood sampling system (ABSS) during the first 3 min of each PET measurement. Subsequently, arterial blood samples (0.7–2.5 mL) were manually drawn at 7, 15, 30, 60, 90, and 120 min after injection of [^18F]GEH200449. After centrifugation, 0.15–1.0 mL of plasma was pipetted and plasma radioactivity was measured in a well counter. In addition, samples were taken directly from the ABSS at 0.5, 1, 1.5, 2, 2.5, and 3 min for cross-calibration with the well counter and for the determination of the plasma-to-blood ratio.
Dynamic images were reconstructed as previously described.[30],[31] Regions of interest (ROIs) for the whole brain and selected regions (caudate nucleus, putamen, thalamus, occipital cortex, prefrontal cortex, and cerebellum) were manually delineated on T1-weighted magnetic resonance images (MRIs) acquired as previously described.[21],[27] PET images were coregistered to the MRIs, and time-activity curves were generated by pooling ROIs for each paired anatomical region and applying the pooled ROIs to the coregistered PET images. […]

[2] = Fraction of unchanged radioligand in arterial plasma (radiometabolite analysis); conditions: 30 min after injection
Method: as §1
The fraction of plasma radioactivity corresponding to the unchanged radioligand in plasma was determined from arterial plasma samples collected at 2, 7, 15, 30, 60, 90, and 120 min after injection of [^18F]GEH200449 according to previously described procedures.[29]

MAO-B = conditions: from pretreatment and displacement with reference competitors
Method: Each PET measurement was performed on a separate experimental day. Experiments conducted in the same NHP were separated by at least 6 weeks. Baseline PET measurements were initially undertaken in each of the five NHPs.
Time curves for regional [^18F]GEH200449 binding at baseline were analyzed by kinetic modeling using 1-TC and 2-TC models,[32] and VT as outcome measures. Akaike information criterion[33] and F statistics were applied to select the preferred model. Regional estimates of VT for [^18F]GEH200449 were also obtained using the Logan linear graphical method[34] with t* fixed at 40 min. The analyses were performed using the kinetic modeling tool in PMOD v. 4.3. Occupancy at [^18F]GEH200449 binding sites was estimated based on regional VT values obtained by the Logan method at baseline and after drug administration according to a graphical procedure described in the literature.[22]

For O=c1ccoc2ccc(OCc3ccc([18F])nc3)cc12 [[^18F]GEH200449], the “whole-brain radioactivity, maximum concentration” value [1] was 4.0–6.4 %ID, the “whole-brain radioactivity, maximum concentration” value ([1]; n = 5 NHPs) was 3.4–5.2 SUV and the “time to maximum whole-brain radioactivity concentration” value ([1]; after IV injection) was 1.8 to 7.5 min. For the same compound, the “parent radioligand remaining unchanged in plasma” value [2] was 5–28% and the “character of binding in the NHP brain” value (MAO-B) was “reversible and selective toward MAO-B”.
